The record followed here is paper PMC12707362, “Targeting Aurora Kinases as Essential Cell‐Cycle Regulators to Deliver Multi‐Stage Antimalarials Against Plasmodium Falciparum” (Angewandte Chemie (International Ed. in English), 2025).

Series [1] deals with asexual intra-erythrocytic parasites. The experiment in a line: Fixed-ratio isobologram analysis. The conditions noted are these: additivity/indifference 0.8–1.4, antagonism >1.4.
Description: Isobolograms were generated by plotting paired FIC values linearly, utilizing the average of three biological replicates, each performed in technical duplicates. The paired FIC values for each drug combination were analyzed, and the mean FIC values (ΣFIC) were calculated to delineate synergism (<0.8), additivity/indifference (0.8–1.4), or antagonism (>1.4).
Series [2] deals with hepatocellular carcinoma (HepG2) cells. The experiment in a line: Cytotoxicity counter-screening (MTT), HepG2. To be noted: read-out: HepG2 CC50; 48 h, MTT. How it is done: HepG2 and CHO cells were maintained at 37 °C, under a humidified atmosphere of 5% CO2, in DMEM high glucose media (Gibco) supplemented with 10% heat-inactivated FBS and 1% (v/v) Penicillin-Streptomycin antibiotics. […] The supernatant was discarded, and the cell pellet was resuspended in 1 mL DMEM media for cell counting by Trypan Blue. To determine the toxicity, cells were resuspended and seeded at a concentration of 1x10^4 cells/well in a 96-well plate and incubated for 24 h^[9,10]. Cells were treated in duplicate with a 10-fold serial dilution starting at 100 ug/mL of inhibitor in new media. After 48 h incubation, the viable cells were measured using the MTT tetrazolium reduction assay, where sterile 25 µL of a 5 mg/mL MTT was added to each well and incubated for 4 h before the […] formazan crystals were dissolved with 100 µL DMSO (Merck) per well. The absorbance, a measure of intracellular reduction of MTT, was measured at 540 nm (Multiskan GO). Emetine (50 µM) was included as a positive drug control, and the background was subtracted from all data before being normalised to the untreated^[9,10].

For series [3], the system named is intracellular hemozoin formation in P. falciparum. The series can be described thus: Cellular heme fractionation assay. Format: cell-based, Plasmodium falciparum. The conditions noted are these: intracellular fractions. How it is done:
The assay set-up followed that described in^[30,32] optimised to a multi-well colourimetric assay for determining heme species in P. falciparum. Briefly, P. falciparum ring-staged parasites were incubated at 2xIC50 value of the test inhibitor for 24 hours. Thereafter, the incubated parasites (trophozoites) were harvested and isolated through various steps of a cellular fractionation process. The cellular fractionations allow for direct quantification of the three major heme species in the trophozoites, namely hemoglobin, free heme, and hemozoin. These heme species can be determined spectroscopically using the aqueous pyridine-ferrochrome method. This method is based on the principle that aqueous pyridine forms a low-spin complex with heme but not hemozoin, and since the absorbance obeys Beer’s law, it allows for the quantification of heme concentration in solution. The various heme fractions were recovered and measured as follows, after the P. falciparum trophozoite cells were harvested following exposure to probe inhibitors:
Water (100 µL) was added to lyse the cells, and the suspension was sonicated for 5 min. This was followed by the addition of 50 µL 0.2M HEPES buffer pH 7.5, and then centrifugation at 3600 rpm for 20 min. The resulting supernatant (containing hemoglobin) was then transferred into an adjacent set of wells on the same plate. To which 50 µL of each of 4% SDS, 0.3 M NaCl and 25% pyridine were added, respectively. Thereafter, 200 µL of the resulting solution ([…]) was transferred to a set of wells on a separate 96-well plate for UV-vis analysis^[32,33].
The pellet from the centrifugation step described above consists of heme and hemozoin. […] Then 50 µL each of HEPES 0.2 M pH 7.5, 0.3 M NaCl, and 25% pyridine were added, respectively. The mixture was centrifugated at 3600 rpm and the supernatant (250 µL) was transferred to adjacent wells on a separate 96-well plate. Thereafter, 150 µL of water was added and 200 µL of the mixture transferred to a set of wells on a separate plate for UV-vis analysis^[32,33].
To the remaining pellet, 50 µL each of water and 0.3 M NaOH were added, and the mixture was sonicated for 15 min. After 30 min of incubation at room temperature, 50 µL each of HEPES 0.2 M pH 7.5, 0.3 M HCl, and 25% pyridine were added, respectively. To the resulting mixture (250 µL), 150 µL of water was then added, and 200 µL of this was transferred to a set of wells on a separate 96-well plate for UV-vis analysis^[32,33].
Cell counts for the assay were performed using the flow cytometry method described in^[33]. Cell counting determines the number of trophozoites per sample and, therefore, allows for the quantification of the amount of heme found in each individual cell.

A further series is described as follows: eLogD. The series is classed as physicochemical. From the text: (§1) In vitro ADME analysis for logD, kinetic solubility (PBS, pH 7.4), human liver microsome clearance and t1/2, rat hepatocyte clearance and t1/2, and protein binding in Albumax media (simulating the malaria parasite culture media) was all performed as per standard assays by TCG LifeSciences.

A short description of another series: Rat hepatocyte clearance. To be noted: rat hepatocytes; for half-life: read-out: Rat hepatocyte t1/2. Format: in vitro ADME.
Text: as §1

The nature of a further series: Kinetic solubility. The series is classed as physicochemical. To be noted: aqueous buffer, kinetic from dmso stock; PBS, pH 7.4; read-out: Kin sol pH 7.4.
Text: as §1

A short description of series [4]: Human liver microsome clearance. Format: in vitro ADME. To be noted: human liver microsomes; for microsomal CLint: read-out: HL microsome CLint; for half-life: read-out: HL microsome t1/2.
Text: as §1
On the technique in general: Microsomes from liver hold many membrane-bound enzymes, among them those of drug oxidation.

The structures appear in SMILES notation. Values after ≈ are worked out from the molar mass of the structure shown.

The CC50 is the concentration giving 50% cytotoxicity. In the case of `COc1cc2c(Nc3ccc(NC(=O)c4ccccc4)cc3)ncnc2cc1OCCCN1CCOCC1` [ZM-39, ZM-447439], the “ΣFIC50 in combination with CQ” value in series [1] turned out to be 1.4. For the same compound, the 50% cytotoxic concentration (CC50) in series [2] came out at 26.5 µM. In series [3], the free heme level entry is recorded as “significant increase in free heme” and the hemozoin level entry is recorded as “decrease in hemozoin formation”.

Turning to `COc1cc(N2CCC(N3CCN(C)CC3)CC2)ccc1Nc1ncc(Cl)c(Nc2ccccc2S(=O)(=O)C(C)C)n1` [TAE684, NVP-TAE684], in the series “eLogD”, the “eLogD pH 7.4” value was 3.4. In series [1], the “ΣFIC50 in combination with CQ” value was 1.3 and the “ΣFIC50 in combination with ML10” value is 1.3. Besides, in series [3], the free heme level entry is recorded as “significant increase in free heme” and the hemozoin level entry is “decrease in hemozoin formation”. Further, in “Rat hepatocyte clearance”, the “Rat hepatocyte CLint” value was determined as 3.5 µL min^−1/10e6 cells and the half-life was determined as 3.28 h. In addition, the solubility kinetic in the series “Kinetic solubility” was 198 µM (≈ 122 µg/mL). In series [4], the microsomal CLint stood at 25.4 µL/min/mg and the half-life stood at 0.917 h.

On to `O=C(Nc1c[nH]nc1-c1nc2ccc(CN3CCOCC3)cc2[nH]1)NC1CC1` [AT83, AT9283], for which the “eLogD pH 7.4” value in “eLogD” is reported as 2.2. In addition, in the series “Rat hepatocyte clearance”, the “Rat hepatocyte CLint” value is 12.6 µL min^−1/10e6 cells and the half-life is 0.917 h. Moreover, the solubility kinetic in “Kinetic solubility” amounted to 22.2 µM (≈ 8.47 µg/mL). For the same compound, in series [4], the microsomal CLint was determined as 3.5 µL/min/mg and the half-life was determined as 6.58 h.

With `CCN(CCO)CCCOc1ccc2c(Nc3cc(CC(=O)Nc4cccc(F)c4)n[nH]3)ncnc2c1` [AZD-1152, AZD-1152-HQPA], in series [2], the CC50 is 25.9 µM.
